Measurements reported in PMC3599355, “Discovery and characterization of a highly efficient enantioselective mandelonitrile hydrolase from Burkholderia cenocepacia J2315 by phylogeny-based enzymatic substrate specificity prediction” (BMC Biotechnology, 2013).

Biological target: T1, BCJ2315 (Burkholderia cenocepacia, UniProt B4E7T0)
T1 construct: gene BCAL2585; full-length gene in pQE30 (BamHI/HindIII), His-tag kept, E. coli M15; 37 kDa subunit, native about 450 kDa, 12 identical subunits
Assay: HPLC hydrolysis assay, Lineweaver-Burk
Assay type: biochemical
Details: standard assay: 100 mM sodium phosphate pH 7.0, 30 °C; mandelonitrile 0.1 to 15 mM; stereo form not stated

T1 sequence (B4E7T0 entry or part of it): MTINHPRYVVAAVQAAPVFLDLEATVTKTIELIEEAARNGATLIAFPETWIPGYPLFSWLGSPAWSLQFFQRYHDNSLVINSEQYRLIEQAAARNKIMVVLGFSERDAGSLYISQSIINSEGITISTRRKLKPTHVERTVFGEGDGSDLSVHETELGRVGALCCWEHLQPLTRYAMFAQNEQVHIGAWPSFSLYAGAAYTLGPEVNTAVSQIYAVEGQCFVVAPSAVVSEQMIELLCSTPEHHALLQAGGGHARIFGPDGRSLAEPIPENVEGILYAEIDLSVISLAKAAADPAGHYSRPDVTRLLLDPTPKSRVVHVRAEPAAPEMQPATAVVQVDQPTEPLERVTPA

## N#CC(O)c1ccccc1 (stereo not shown) [mandelonitrile]
  Km: 140 µM
